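Cultured in 96-well plates, cells were exposed to test compound for 48 hours across five concentrations. TGI: concentration producing complete growth inhibition.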
Key:
Experiment in all cases: NCI tumour cell line growth inhibition, 48 h
[1] = test system: 786-0 renal
[2] = test system: A498 renal
[3] = test system: A549 NSCLC
[4] = test system: ACHN renal
[5] = test system: CAKI-1 renal
[6] = test system: CCRF-CEM leukemia
[7] = test system: DU-145 prostate
[8] = test system: EKVX NSCLC
[9] = test system: HCC-2998 colon
[10] = test system: HCT-116 colon
[11] = test system: HCT-15 colon
[12] = test system: HL-60(TB) leukemia
[13] = test system: HOP-62 NSCLC
[14] = test system: HOP-92 NSCLC
[15] = test system: HS 578T breast
[16] = test system: HT29 colon
[17] = test system: IGROV1 ovarian
[18] = test system: K-562 leukemia
[19] = test system: KM12 colon
[20] = test system: LOX IMVI melanoma
[21] = test system: M14 melanoma
[22] = test system: MALME-3M melanoma
[23] = test system: MCF7 breast
[24] = test system: MDA-MB-231 breast
[25] = test system: MDA-MB-435
[26] = test system: MDA-N
[27] = test system: MOLT-4 leukemia
[28] = test system: NCI-H226 lung
[29] = test system: NCI-H23 lung
[30] = test system: NCI-H460 lung
[31] = test system: NCI-H522 lung
[32] = test system: NCI/ADR-RES ovarian
[33] = test system: OVCAR-3 ovarian
[34] = test system: OVCAR-4 ovarian
[35] = test system: OVCAR-5 ovarian
[36] = test system: OVCAR-8 ovarian
[37] = test system: RPMI-8226 leukemia
[38] = test system: RXF 393 renal
[39] = test system: SF-268 CNS
[40] = test system: SF-539 CNS
[41] = test system: SK-MEL-28 melanoma
[42] = test system: SK-MEL-5 melanoma
[43] = test system: SN12C renal
[44] = test system: SNB-19 CNS
[45] = test system: SNB-75 CNS
[46] = test system: SR leukemia
[47] = test system: SW-620 colon
[48] = test system: T-47D breast
[49] = test system: TK-10 renal
[50] = test system: U251 CNS
[51] = test system: UACC-257 melanoma
[52] = test system: UO-31 renal
[53] = test system: BT-549 breast
[54] = test system: COLO 205 colon
[55] = test system: PC-3 prostate
[56] = test system: SF-295 CNS
[57] = test system: SK-MEL-2 melanoma
[58] = test system: SK-OV-3 ovarian
[59] = test system: UACC-62 melanoma

**Q.** `COC(=O)c1cccc(C)c1C1CN=NC12Cc1c(ccc(C)c1C)C2=O` (stereo not drawn) was tested. Which TGI [1] did it give?
**A.** Its TGI is over 100 µM.

**Q.** What about the TGI [2] of the same molecule?
**A.** Its TGI is over 100 µM.

**Q.** What about the TGI [3] of the same molecule?
**A.** Its TGI is over 100 µM.

**Q.** What about the TGI [4] of the same molecule?
**A.** Its TGI is over 100 µM.

**Q.** And the TGI [5]?
**A.** The TGI was over 100 µM.

**Q.** And the TGI [6]?
**A.** Its TGI is over 100 µM.

**Q.** And the TGI [7]?
**A.** Its TGI is over 100 µM.

**Q.** And the TGI [8]?
**A.** The TGI was 57.9 µM.

**Q.** What about the TGI [9] of the same molecule?
**A.** The TGI was over 100 µM.

**Q.** What about the TGI [10] of the same molecule?
**A.** The TGI was over 100 µM.

**Q.** What about the TGI [11] of the same molecule?
**A.** The TGI was over 100 µM.

**Q.** What about the TGI [12] of the same molecule?
**A.** Its TGI is 37.1 µM.

**Q.** And the TGI [13]?
**A.** The TGI was over 100 µM.

**Q.** And the TGI [14]?
**A.** Its TGI is over 100 µM.

**Q.** And the TGI [15]?
**A.** Its TGI is over 100 µM.

**Q.** And the TGI [16]?
**A.** Its TGI is over 100 µM.

**Q.** And the TGI [17]?
**A.** Its TGI is over 100 µM.

**Q.** And the TGI [18]?
**A.** Its TGI is over 100 µM.

**Q.** And the TGI [19]?
**A.** The TGI was over 100 µM.

**Q.** What about the TGI [20] of the same molecule?
**A.** The TGI was over 100 µM.

**Q.** And the TGI [21]?
**A.** The TGI was over 100 µM.

**Q.** What about the TGI [22] of the same molecule?
**A.** The TGI was 78.1 µM.

**Q.** And the TGI [23]?
**A.** Its TGI is over 100 µM.

**Q.** What about the TGI [24] of the same molecule?
**A.** Its TGI is over 100 µM.

**Q.** And the TGI [25]?
**A.** The TGI was over 100 µM.

**Q.** And the TGI [26]?
**A.** Its TGI is over 100 µM.

**Q.** What about the TGI [27] of the same molecule?
**A.** Its TGI is 86.7 µM.

**Q.** What about the TGI [28] of the same molecule?
**A.** Its TGI is over 100 µM.

**Q.** And the TGI [29]?
**A.** Its TGI is over 100 µM.

**Q.** And the TGI [30]?
**A.** Its TGI is over 100 µM.

**Q.** And the TGI [31]?
**A.** Its TGI is over 100 µM.

**Q.** What about the TGI [32] of the same molecule?
**A.** The TGI was over 100 µM.

**Q.** What about the TGI [33] of the same molecule?
**A.** Its TGI is over 100 µM.

**Q.** And the TGI [34]?
**A.** Its TGI is over 100 µM.

**Q.** And the TGI [35]?
**A.** Its TGI is over 100 µM.

**Q.** What about the TGI [36] of the same molecule?
**A.** Its TGI is over 100 µM.

**Q.** What about the TGI [37] of the same molecule?
**A.** Its TGI is 96.2 µM.

**Q.** And the TGI [38]?
**A.** Its TGI is 92.4 µM.

**Q.** And the TGI [39]?
**A.** Its TGI is over 100 µM.

**Q.** And the TGI [40]?
**A.** The TGI was over 100 µM.

**Q.** What about the TGI [41] of the same molecule?
**A.** The TGI was over 100 µM.

**Q.** And the TGI [42]?
**A.** The TGI was 17.7 µM.

**Q.** What about the TGI [43] of the same molecule?
**A.** Its TGI is over 100 µM.

**Q.** And the TGI [44]?
**A.** Its TGI is over 100 µM.

**Q.** What about the TGI [45] of the same molecule?
**A.** The TGI was over 100 µM.

**Q.** And the TGI [46]?
**A.** Its TGI is over 100 µM.

**Q.** What about the TGI [47] of the same molecule?
**A.** The TGI was over 100 µM.

**Q.** And the TGI [48]?
**A.** Its TGI is 25.1 µM.

**Q.** And the TGI [49]?
**A.** Its TGI is over 100 µM.

**Q.** What about the TGI [50] of the same molecule?
**A.** Its TGI is over 100 µM.

**Q.** What about the TGI [51] of the same molecule?
**A.** The TGI was over 100 µM.

**Q.** And the TGI [52]?
**A.** Its TGI is over 100 µM.

**Q.** Which results are given for `Cn1c(=S)[nH]c2c(Cl)cc(Cl)cc2c1=O`?
**A.** TGI [1]: > 100 µM; TGI [3]: > 100 µM; TGI [4]: > 100 µM; TGI [53]: > 100 µM; TGI [5]: > 100 µM; TGI [6]: 64.7 µM; TGI [54]: > 100 µM; TGI [7]: > 100 µM; TGI [8]: > 100 µM; TGI [9]: > 100 µM; TGI [10]: > 100 µM; TGI [11]: > 100 µM; TGI [12]: 78.8 µM; TGI [13]: > 100 µM; TGI [14]: > 100 µM; TGI [15]: > 100 µM; TGI [17]: > 100 µM; TGI [19]: > 100 µM; TGI [20]: > 100 µM; TGI [21]: > 100 µM; TGI [23]: > 100 µM; TGI [24]: > 100 µM; TGI [25]: > 100 µM; TGI [26]: > 100 µM; TGI [27]: > 100 µM; TGI [29]: > 100 µM; TGI [30]: > 100 µM; TGI [31]: > 100 µM; TGI [32]: > 100 µM; TGI [33]: > 100 µM; TGI [34]: > 100 µM; TGI [35]: > 100 µM; TGI [36]: > 100 µM; TGI [55]: > 100 µM; TGI [38]: > 100 µM; TGI [39]: > 100 µM; TGI [56]: > 100 µM; TGI [40]: > 100 µM; TGI [57]: > 100 µM; TGI [41]: > 100 µM; TGI [42]: > 100 µM; TGI [58]: > 100 µM; TGI [43]: > 100 µM; TGI [44]: > 100 µM; TGI [45]: > 100 µM; TGI [47]: > 100 µM; TGI [49]: > 100 µM; TGI [50]: > 100 µM; TGI [51]: > 100 µM; TGI [59]: > 100 µM; TGI [52]: > 100 µM

From PubChem BioAssay (NCI)
